# From patent publication US20100204277A1, “Compositions and Methods for Controlling Infestation” (HATCHTECH PTY LTD., priority 2007, published 2010)
# Tests used:
# [1] = test system: body lice eggs (clothing lice); experiment: In vitro lice egg hatching bioassay (standard lice assay, time course)
# Method: Male and female clothing lice were fed on a rabbit as previously described. Female and male adult lice in a ratio of 3:1 were then transferred to a clean petri dish containing nylon cloth approximately 3×3 cm^2 and left for 12 hours at 32° C. During this period the female lice laid their eggs and attached them to the woven cloth. All lice would then be removed and the eggs permitted to incubate for the following 5 days. On Day 6 the cloth containing the eggs would be placed for 1 minute in a 1% sodium hypochlorite solution and then washed extensively. The eggs would then progress through to their final stages of development and hatch.
# Lice eggs were laid onto cloth as described above. Five days post laying the cloth containing lice eggs was removed and immersed in a 1% sodium hypochlorite solution before being washed extensively in distilled water and blotted dry on tissue paper. Lice eggs were counted under a dissecting microscope and the cloth cut into batches of between 10-30 eggs with 3-5 replicates used per treatment. The cloth containing lice eggs was then immersed in a protease inhibitor solution for a period of 10 minutes, placed on tissue paper for 1 minute to dry before being transferred to a clean petri dish and incubated until hatching. […] Specifically a stock solution was prepared as follows: 1,10-phenanthroline (200 mM in methanol). In addition, the equivalent levels of the solvent were added to the non-inhibitor containing controls eggs to test for any buffer alone effects. Percentage hatch inhibition was calculated as the percentage reduction in egg hatch compared to the untreated control. The untreated control was assigned a percentage hatch of 100%.
# A series of time-course experiments was conducted as a means of assessing inhibitors of lice egg hatching. […]
# An experiment was undertaken to determine whether washing of the eggs would effect the inhibitory activity of 1,10-phenanthroline (Table 3). […] Percentage hatch inhibition was calculated as the percentage reduction in egg hatch compared to the untreated control. […]
# [2] = test system: proteases in louse egg shell washings (ESW); experiment: Gelatine substrate SDS-PAGE of louse egg shell washings incubated with protease inhibitors; format: biochemical, Pediculus humanus humanus
# Method: Within 12 hours of hatching 50 body lice eggs (Pediculus humanus humanus) were removed from the hair and placed in a 1 mL eppendorf tube. 20 μL of distilled water was added to the unhatched eggs and the preparation incubated for 30 minutes at 32° C. The 20 μL was recovered, freeze dried and stored at −70° C. This sample was referred to as sample 1. A number of other samples were also collected as described. Sample 2 was collected by removing the unhatched louse eggs from four hairs that were approximately 3 cm long, cutting the hair into 0.5 cm lengths, and placing them into a microfuge tube containing 20 μl of distilled water and incubating at 32° C. for 30 minutes. Sample 3 was collected as for sample 2, but the hair was placed in a tube containing 10 mL of 1% sodium hypochlorite for 1 minute followed by five 1 minute washes in 25 mL of distilled water to remove the sodium hypochlorite before being incubated in a microfuge tube containing 20 μl of distilled water and incubated as for Sample 2. Sample 4 was collected from unhatched eggs which were removed from the hair and washed with 1% sodium hypochlorite and incubated in 20 μl of distilled water in the same manner as the hair in Sample 3. Finally, Sample 5 was collected from eggs that were within 24 hrs of hatching which were washed with 1% sodium hypochlorite, then returned to the incubator at 32° C. until they hatched, the empty egg shells collected 0-2 hrs after egg-hatching, placed in a 1 mL microfuge tube containing 20 μl of distilled water and incubated as for Samples 1-4. For all samples 1-5 the 20 μl of fluid was recovered, freeze-dried and stored at −70° C. The washings recovered from these freshly hatched egg shells are referred to as egg-shell-washings (ESWs). In order to look for the presence of proteases present in these different samples, the freeze-dried samples were resuspended in 15 μL of non-reducing SDS sample buffer, centrifuged at 10,000 g for 2 minutes and the entire 15 μL loaded on to 10% gelatine substrate SDS-PAGE gels. Gels were run at 4° C. for 10 minutes at 10 mA followed by a further 25 minutes at 15 mA per gel. They were then incubated for 2×20 minutes in a 2.5% Triton-X 100 solution followed by a three hour incubation in 0.1M Tris/HCl containing 1 mM CaCl2 pH 8.0. Activity was detected as clear areas on the gel the result of protease activity degrading the gelatine within the gel.
# Protease activity in the ESWs from louse eggs was also examined using two-dimensional gel electrophoresis. It was necessary to collect large numbers of freshly hatched egg shells. Following egglaying onto pieces of cloth, adult female lice were removed and the cloth with the eggs washed with 1% sodium hypochlorite as for collection of ESWs. The eggs were then returned to the incubator and permitted to hatch. Typically 100 to 500 hatched egg shells were collected (0-2 hours post hatching), placed in a microfuge tube containing 200 μl of distilled water, incubated and sample treated as described above. For analysis, ESWs were resuspended in rehydration buffer (8 M Urea, 2% 3-[(3-cholamidopropyl) dimethylammonio]-1-propanesulfonate 2% Immobilised pH gradient buffer 3-10 (Amersham Phamacia Biotech, Uppsala, Sweden)) and used to rehydrate 7 cm Immobiline Dry strips pH 3-10 (Amersham Bioscience) overnight. Strips were transferred to the Multiphor II (Pharmacia, Sweden) apparatus, electrophoresed in the first dimension at 200 V for 1 min, increasing to 3,500 V over the next 90 min followed by 65 min at 3,500 V, equilibrated (6 M urea, 30% glycerol, 50 mM Tris pH 8.8 and 2% SDS) and then run on a 10% SDS-PAGE gel containing 0.1% gelatin for the second dimension. The gel was then run and developed as previously described.
# 10% SDS-PAGE gelatine substrate gels were loaded with freeze dried egg shell washings from 100 lice eggs that had been resuspended in 50 μL of non-reducing sample buffer with samples run at 10 μL per lane. […]
# head lice egg = experiment: Head lice egg hatching, time course; format: in vivo, Pediculus humanus capitus; conditions: 10 mM, 10 minutes
# Method: Tests were carried out to determine if metal chelating agent and metalloprotease inhibitor 1,10-phenanthroline could inhibit head lice egg (Pediculus humanus capitus) hatching as opposed to body lice. Head lice eggs were obtained by placing groups of both 1-2 adult male and 6-8 adult female head lice in separate wells in a 24 well petri dish containing cotton cloth. The petri dish was transferred to a humid incubator at 32° C., 70% RH for 12 hours to permit the female lice to lay their eggs. After 12 hours, all adult lice were removed from the petri dish wells and a series of time-course experiments conducted. A group of eggs (24 hr old) was treated for 10 minutes with 200 μL of a 10 mM solution of 1,10-phenanthroline. A control (ie no inhibitor treatment) group of eggs was also included. The eggs were removed from the inhibitor, blotted dry on tissue paper, placed at 32° C., 70% RH and left to hatch. A second group of eggs, (48 hours old) were treated as previously described and also left to hatch. This process was repeated at 24 hour intervals on head lice eggs up to 120 hours post laying.
# [3] = test system: Plutella xylostella eggs (Waite strain); experiment: Plutella xylostella egg hatch (egg dip); conditions: 10 mM; Example 12; dip 2-10 seconds; day 6 post laying
# Method: Several hundred Plutella xylostella eggs (Waite strain) were collected, that had been laid over a 24 hour period.
# The egg masses were then placed in a humid box at 25° C. until egg hatch. Control eggs were exposed to absolute methanol as described above. At day 6 post laying the eggs were assessed from the different treatments and the percentage of egg hatch determined relative to the control as shown in Table 9.
# Batches of Plutella eggs that were laid on either fine cloth or parafilm were dipped in a specific inhibitor solution for between 2-10 seconds, the excess solution was drained by blotting with dry tissue paper. The egg masses were then placed in a humid box at 25 degrees until egg hatch. Control eggs were exposed to absolute methanol as described above or not treated. At day 6 post laying the eggs were assessed from the different treatments and the percentage of egg hatch determined relative to the controls as shown in Tables 10 and 11.
# The egg masses were then placed in a humid box at 25 degrees until egg hatch. Control eggs were exposed to absolute ethanol as described above. On day 6 post laying the eggs were assessed from the different treatments and the percentage of egg hatch determined relative to the control.
# [4] = test system: Lice (L) / Plutella (P) eggs; format: in vivo; conditions: 10 mM; Lice/Plutella: L P
# Method: Log LD50 is obtained from the observed percentage ovicidal activity by conversion using a modified logit transformation. The observed percentage ovicidal activity values were transformed using the equation:
# The additional 5% was used to allow a number to be calculated when 0% and 100% activity was observed. The BA is a crude correction to the log of the concentration at which the compounds were tested. Correlation between BA values and LD50 allows the calculation of Log LD50. […] A number of metal chelating agents with potential for inhibiting the remodelling events associated with thin membrane egg hatching in lice were analysed by comparing their percentage ovicidal activity in lice at different concentrations, their logit calculated pLD50, Pref pLD50, Activity class, clogP and molar refractivity were determined.
# lice eggs = experiment: Standard lice egg-hatching assay with commercial head lice products; format: in vivo; conditions: Example 10; products per manufacturer's recommendations, 1,10-phenanthroline 10 mM
# Method: The ovicidal properties of three major commercial head lice products were evaluated in the standard lice egg-hatching assay. The 3 commercial head lice products were as follows:
# These three products were tested according to manufacturer's recommendations. Groups of eggs (24 hours old) were treated with the different products according to manufacturer's recommendations for the appropriate period of time (5-10 minutes) followed by a rinse for 1-2 minutes in 32° C. water. A positive controls (10 mM 1,10-phenanthroline) and two negative controls (no treatment and 20% Methanol) were also incorporated. Post exposure to the different products, the eggs were rinsed with warm water at 32° C. before being blotted dry on tissue paper and placed at 32° C., 70% RH and left to hatch. A second group of eggs, (48 hours old) were treated as previously described and also left to hatch. This process was repeated at 24 hour intervals on head lice eggs up to 120 hours post laying.
# The ovicidal properties of two major commercial head lice products were evaluated in the standard lice egg-hatching assay. The 2 commercial head lice products were as follows:
# These two products were tested according to manufacturer's recommendations. […]
# [5] = test system: Helicoverpa armigera eggs; experiment: Helicoverpa egg hatch; conditions: 10 mM; Example 16; exposed 2-10 seconds; day 6 post laying
# Method: A range of concentrations were made up in water and the eggs placed in the solutions for approximately 2-10 seconds. The eggs which had been laid on cloth were then blotted dry and placed in an incubator at 26° C. for 3-4 days until hatch. Hatch rates were then assessed compared to a water only treated control (FIG. 5).
# The compound was dissolved in 100% diethoxyglycol and diluted to a final concentration of 1% in water.
# Several hundred Helicoverpa armigera eggs (Tatura×Toowoomba strains) were collected, that had been laid on fine mesh cloth over a 24 hour period.
# Batches of Helicoverpa eggs were exposed to a specific inhibitor solution for between 2-10 seconds the excess solution drained by blotting with dry tissue paper. The egg masses were then placed in a humid box at 25 degrees until egg hatch. Control eggs were exposed to absolute methanol as described above. At day 6 post laying the eggs were assessed from the different treatments and the percentage of egg hatch determined relative to the control as shown in Table 12.
# Batches of Helicoverpa eggs were then exposed to a specific inhibitor solution for between 2-10 seconds the excess solution drained by blotting with dry tissue paper. The egg masses were then placed in a humid box at 25° C. until egg hatch. Control eggs were exposed to absolute methanol as described above. At day 6 post laying the eggs were assessed from the different treatments and the percentage of egg hatch determined relative to the control as shown in Table 13.
smiles,measurement,setting,value
"c1cnc2c(c1)ccc1cccnc12 [1,10-phenanthroline]",inhibition of lice egg hatching following washing of eggs in water,"[1]; 10 mM, 10 minutes, washed 1 minute",still highly efficacious
same,inhibition of egg hatching in lice,"[1]; 10 mM, eggs treated 5 days post laying, 10 minutes",significantly inhibited
same,egg hatching in lice,"[1]; 2.5-10 mM, all time points examined",significantly inhibit
same,"protease activity of egg shell washings, two dimensional gel","[2]; gel incubated with 10 mM 1,10-phenanthroline",general reduction in protease activity in the 25-30 kDa region and a clear reduction in the proteases present around the 50 kDa region and above 75 kDa
same,protease activity of egg shell washings compared to untreated controls,"[2]; gelatine SDS-PAGE strips, EDTA 10 mM, 1,10-phenanthroline 10 mM, PMSF 5 mM, E-64 10 μM, Pepstatin 5 μM, 3 hrs at 37° C.",reduction in protease activity
same,egg hatching in head lice,head lice egg,significantly inhibit
same,% Inhibition of egg hatch relative to control,[3],significantly inhibit
same,Activity class 0 = inactive 1 = low 2 = med 3 = high,[4],1 (a pLD50 value between 2 and 3 is considered weakly active (Class 1))
same,ovicidal activity across the different stages of lice egg hatching,lice eggs,highly effective
same,% Inhibition of egg hatch relative to control,[5],able to inhibit
